Where a name gives a salt, the structure may show the parent alone.
Tests used:
[1] = molecular target: recombinant human CRTH2 receptor (Homo sapiens (Human), UniProt Q9Y5Y4); experiment: In vitro membrane GTPγS binding assay; format: biochemical; details: average; 80 nM PGD2, 0.2% human serum albumin
Protocol: Example 16: In Vitro GTPγS Binding Assay
The ability of Compound 1 to inhibit binding of GTP to DP2 is assessed via a membrane GTPγS assay. CHO cells stably expressing the recombinant human CRTH2 receptor are resuspended in 10 mM Hepes, 7.4 containing 1 mM DTT, lysed and centrifuged at 75,000×g to pellet the membranes. The membranes are resuspended in 10 mM Hepes, 7.4 containing 1 mM DTT and 10% glycerol. Membranes (˜12.5 μg per well) are incubated in 96-well plates with 0.05 nM [^35S]-GTPγS, 80 nM PGD2, 5 μM GDP, and Compound 1 in Assay Buffer (50 mM Hepes, pH 7.4, 100 mM NaCl, 5 mM MgCl2 and 0.2% human serum albumin) for 60 minutes at 30° C. The reactions are terminated by rapid filtration through Whatman GF/B glass fibre filter plates. The filter plates are washed 3 times with 1 ml cold Assay Buffer and dried. Scintillant is then added to the plates and the radioactivity retained on the filters is determined on a Packard TopCount (Perkin Elmer). Specific binding is determined as total radioactive binding minus non-specific binding in the […] of the ligand (80 nM PGD2). IC50s were determined using Graphpad prism analysis of drug titration curves.

[2] = test system: allergen-induced asthma (OVA challenge); experiment: Guinea pig allergic asthma (OVA) model; format: in vivo
Protocol: Example 20: Guinea Pig Allergic Asthma Model
Compound 2 was evaluated in a guinea pig OVA model in order to determine efficacy in a setting of allergen-induced asthma. As an early indication of a pharmacodynamic response animals were challenged with DK-PGD2 2 hours post OVA challenge (2.5 hours post Compound 2 administration) and blood was collected 30 minutes later to assess leukocytes counts. […] OVA challenge caused a significant influx of cells in bronchoalveolar lavage fluid at 23.5 hr post-dose; there was no difference between animals that received OVA only versus those that received OVA plus DK-PGD2. The majority of cells were eosinophils and macrophages with a small, but significant proportion of neutrophils.

[3] = molecular target: CYP1A2 (Homo sapiens (Human), UniProt P05177); details: microsomes, pH 7.4
Sequence of CYP1A2 (P05177 whole entry): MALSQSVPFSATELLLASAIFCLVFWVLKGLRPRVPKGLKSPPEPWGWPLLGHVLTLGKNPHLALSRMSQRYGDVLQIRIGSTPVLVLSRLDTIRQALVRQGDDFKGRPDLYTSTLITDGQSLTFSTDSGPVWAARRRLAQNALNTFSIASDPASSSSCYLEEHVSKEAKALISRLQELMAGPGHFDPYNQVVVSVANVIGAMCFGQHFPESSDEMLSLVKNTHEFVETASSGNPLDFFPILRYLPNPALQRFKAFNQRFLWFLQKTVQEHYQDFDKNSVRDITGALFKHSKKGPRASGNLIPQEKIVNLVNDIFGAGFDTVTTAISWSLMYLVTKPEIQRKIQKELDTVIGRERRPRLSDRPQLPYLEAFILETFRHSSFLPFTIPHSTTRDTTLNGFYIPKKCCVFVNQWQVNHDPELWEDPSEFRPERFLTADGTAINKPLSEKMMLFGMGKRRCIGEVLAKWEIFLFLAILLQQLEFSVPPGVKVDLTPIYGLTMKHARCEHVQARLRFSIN

Sequence of recombinant human CRTH2 receptor (Q9Y5Y4 whole entry): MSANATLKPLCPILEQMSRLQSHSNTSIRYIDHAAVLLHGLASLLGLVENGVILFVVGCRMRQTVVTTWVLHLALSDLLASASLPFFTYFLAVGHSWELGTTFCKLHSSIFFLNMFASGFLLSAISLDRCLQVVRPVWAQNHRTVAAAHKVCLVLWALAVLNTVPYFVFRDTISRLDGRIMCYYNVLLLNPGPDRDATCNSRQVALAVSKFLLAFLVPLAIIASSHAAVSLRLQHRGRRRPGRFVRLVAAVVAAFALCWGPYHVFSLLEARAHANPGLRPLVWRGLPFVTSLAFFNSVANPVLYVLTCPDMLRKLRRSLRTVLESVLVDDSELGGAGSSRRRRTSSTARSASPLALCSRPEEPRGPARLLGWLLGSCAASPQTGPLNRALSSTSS

Structure (SMILES) | IC50 [1] | eosinophils and neutrophils in bronchoalveolar lavage fluid ([2]; 100 mg/kg PO) | total cellular influx in bronchoalveolar lavage fluid ([2]; 30, 60, and 100 mg/kg PO, significant at 60 and 100 mg/kg, 23.5 hr post-dose) | DK-PGD2-induced increase in blood leukocytes ([2]; 30, 60, and 100 mg/kg, 2.5 hours post administration) | IC50 [3]
COc1ccc(CC(=O)O)cc1Oc1ccc(NC(=O)C(C)(C)C)cc1CSC(C)(C)C [Compound 1, 2-(3-(2-((tert-butylthio)methyl)-4-(2,2-dimethyl-propionylamino)phenoxy)-4-methoxyphenyl)acetic acid] | 2.8 nM | – | – | – | –
COc1ccc(CC(=O)O)cc1Oc1ccc(NC(=O)C(C)(C)C)cc1CSC(C)(C)C [Compound 2, 2-(3-(2-((tert-butylthio)methyl)-4-(2,2-dimethyl-propionylamino)phenoxy)-4-methoxyphenyl)acetic acid, sodium salt] | – | significantly reduced | dose dependently inhibited | blocked | > 50000 nM
